Measured values from the NIST ThermoML archive (doi:10.1021/je5008795).

Assays:
[1] = for Normal melting temperature: DTA; for vapor or sublimation pressure: Transpiration method
[2] = Molar enthalpy of transition or fusion; details: Crystal; DSC
[3] = refractive index (Na D-line) (dimensionless); xn = mol fraction of the nth substance listed; details: 298.15 K, 101 kPa, Liquid, Standard Abbe refractometry
[4] = xn = mol fraction of the nth substance listed; details: 298.15 K, 101 kPa, Liquid, Vibrating tube method

Clc1c2ccccc2c(Cl)c2ccccc12 [9,10-dichloroanthracene]
Details	Normal melting temperature [°C]
[1], Crystal	213.5

Details	Molar enthalpy of transition or fusion [kcal/mol]
[2]	6

Clc1c(Cl)c(Cl)c(Cl)c(Cl)c1Cl [hexachlorobenzene] + ClC(Cl)(Cl)Cl
Details	mass density, x1 = 0.00028 [kg/m3]	mass density, x1 = 0.00052 [kg/m3]	mass density, x1 = 0.00066 [kg/m3]	mass density, x1 = 0.00094 [kg/m3]	refractive index, x1 = 0.00028	refractive index, x1 = 0.00052	refractive index, x1 = 0.00066	refractive index, x1 = 0.00094
[3]	–	–	–	–	1.45724	1.45734	1.45735	1.45743
[4]	1584.37	1584.53	1584.53	1584.63	–	–	–	–

Brc1ccccc1Br [1,2-dibromobenzene] + c1ccccc1
Details	mass density, x1 = 0.00278 [kg/m3]	mass density, x1 = 0.00365 [kg/m3]	mass density, x1 = 0.00738 [kg/m3]	mass density, x1 = 0.01251 [kg/m3]	refractive index, x1 = 0.00278	refractive index, x1 = 0.00365	refractive index, x1 = 0.00738	refractive index, x1 = 0.01251
[3]	–	–	–	–	1.49816	1.49829	1.49882	1.49961
[4]	877.563	878.834	884.292	891.807	–	–	–	–

Clc1c2ccccc2cc2ccccc12 [9-chloroanthracene]
Details	Normal melting temperature [°C]
[1], Crystal	103.5

Details	Molar enthalpy of transition or fusion [kcal/mol]
[2]	5.26

ClC(Cl)(Cl)Cl [tetrachloromethane] + Clc1c(Cl)c(Cl)c(Cl)c(Cl)c1Cl
x2 = 0
Details	mass density [kg/m3]	refractive index
[3]	–	1.45715
[4]	1584.26	–

c1ccccc1 [benzene] + Brc1ccc(Br)cc1
x2 = 0
Details	mass density [kg/m3]	refractive index
[3]	–	1.49755
[4]	873.671	–

Brc1ccc(Br)c2ccccc12 [1,4-dibromonaphthalene] + c1ccccc1
Details	mass density, x1 = 0.00087 [kg/m3]	mass density, x1 = 0.00189 [kg/m3]	mass density, x1 = 0.00208 [kg/m3]	mass density, x1 = 0.00321 [kg/m3]	refractive index, x1 = 0.00087	refractive index, x1 = 0.00189	refractive index, x1 = 0.00208	refractive index, x1 = 0.00321
[3]	–	–	–	–	1.49786	1.4982	1.49828	1.49872
[4]	875.112	876.792	877.158	879.019	–	–	–	–

Brc1ccc(-c2ccc(Br)cc2)cc1 [4,4'-dibromo-1,1'-biphenyl]
[1], Crystal
Details	vapor or sublimation pressure [kPa]
358.1 K	0.00038
363.9 K	0.00067
365.4 K	0.00077
368.4 K	0.00099
373.5 K	0.00162
378.5 K	0.00243
383.5 K	0.00367
388.6 K	0.00579
393.3 K	0.00851
396.6 K	0.01049
399.6 K	0.0138
400.4 K	0.0144
402.6 K	0.0171
404.4 K	0.02039

Brc1ccc(Br)cc1 [1,4-dibromobenzene] + c1ccccc1
Details	mass density, x1 = 0.0018 [kg/m3]	mass density, x1 = 0.00185 [kg/m3]	mass density, x1 = 0.0025 [kg/m3]	mass density, x1 = 0.0033 [kg/m3]	refractive index, x1 = 0.0018	refractive index, x1 = 0.00185	refractive index, x1 = 0.0025	refractive index, x1 = 0.0033
[3]	–	–	–	–	1.49781	1.49784	1.49795	1.49808
[4]	876.211	876.342	877.295	878.419	–	–	–	–

Brc1ccc(Br)cc1 [1,4-dibromobenzene]
[1], Crystal
Details	vapor or sublimation pressure [kPa]
296.5 K	0.00693
299.5 K	0.00922
302.4 K	0.01272
303.5 K	0.01383
305.4 K	0.01701
308.4 K	0.02188
309.4 K	0.02467
311.4 K	0.02936
314.4 K	0.03757
317.4 K	0.04642
319.4 K	0.05898
320.4 K	0.06313
323.4 K	0.08309
329.6 K	0.143

Brc1ccccc1Br [1,2-dibromobenzene]
[1], Liquid
Details	vapor or sublimation pressure [kPa]
290.3 K	0.01251
292.4 K	0.01408
292.5 K	0.01451
295.8 K	0.01802
298.2 K	0.02158
301.2 K	0.02661
304.2 K	0.03482
307.3 K	0.04115
310.2 K	0.05236
313.2 K	0.06399
316.3 K	0.07736
319.3 K	0.09284
320.6 K	0.09686
322.1 K	0.1075
325.2 K	0.1324
325.3 K	0.135
328.2 K	0.1579
